Test results from patent US9855209B1, “Anti-bacterial mouthwash” (KING ABDULAZIZ UNIVERSITY, priority 2017, dated 2018).

Tested on: Salmonella enterica subsp. Enterica serovar Typhimurium (ATCC 29629, TA 1535)
Experiment: Ames test
Format: cell-based
Details: positive control
Source text: The Ames test was followed according to a previously reported procedure (Ames et al, 1973; Mortelmans and Zeiger, 2000). Briefly, the test organism Salmonella enterica subsp. Enterica serovar Typhimurium (ATCC® 29629-Strain Designations: TA 1535), an auxotrophic mutant, was provided by ATCC, Manassas, USA. This auxotrophic isolate requires histidine for its growth, due to a mutation in its DNA. Substances to be tested for their mutagenesis, could be added in the histidine-free medium of the test organism, to monitor their ability to reverse back the mutated Salmonella typhimurium to a prototrophic state, enabling it to grow. The anti-bacterial mouthwash was incorporated in the histidine-free medium used in the Ames test, at four different concentrations namely, 1/100×, 1×, 1.5×, and 2× (where X is the dilution used in mouth rinsing experiments), while another batch of the medium was deprived of the Mouthwash substance. Ethidium bromide, an expected positive inducer of mutations in the test organism, was incorporated in another batch of the same histidine-free medium at two concentrations namely, 20 and 200 nmole. The S. Typhimurium was cultured in triplicate onto the 4 differently supplemented media, and on the 5th control medium that was deprived of supplementation, to observe the growth of this test organism. The bacterium was spread over these media with small amounts of histidine that helps in the initiation of the growth, and once this amino acid is depleted, only the mutated cells by the supplemented substance will be able to synthesize their histidine, and to continue their growth. Thus, mutagenicity is determined in this research from the proportion of the average colony forming units formed on triplicate of the supplemented medium with the anti-bacterial mouthwash versus that formed on triplicate of the non-supplemented medium, with the growth on Ethidium bromide acting as a positive control of the test.
The results of the Ames test in relation to reversion of the S. Typhimurium test organism from its auxotrophic to prototrophic nature is shown in Table 4.

Which results are given for CC[n+]1c(-c2ccccc2)c2cc(N)ccc2c2ccc(N)cc21 [Ethidium bromide]?
Mean % increase in S. Typhimurium CFU count of triplicate relative to mean triplicate count on minimal Histidine-supplemented medium (20 nmol/plate): 0%; Mean % increase in S. Typhimurium CFU count of triplicate relative to mean triplicate count on minimal Histidine-supplemented medium (20 nmol/plate, listed as Eth): 0.0%; Mean % increase in S. Typhimurium CFU count of triplicate relative to mean triplicate count on minimal Histidine-supplemented medium (200 nmol/plate, apparent reversion of mutation (P<0.05)): 12.5%
